The source of these data is PMC7515946, “Targeting of Perforin Inhibitor into the Brain Parenchyma Via a Prodrug Approach Can Decrease Oxidative Stress and Neuroinflammation and Improve Cell Survival” (Molecular Neurobiology, 2020).

Details of series [1]: method as in PMID 31492955. Conditions: neurons, astrocytes, and microglia homogenates; cited from earlier work.
Details of series [2]: method as in PMID 27266990. Conditions: during 5 h incubation; cited from earlier work.
The test system of series [3] is mouse primary astrocytes. On the set-up: method as in PMID 31492955. Conditions: in the presence of a specific LAT1 inhibitor; cited from earlier work.
A further series has as its system LAT1. Set-up: method as in PMID 31610281. Conditions: human breast adenocarcinoma cells (MCF-7); read-out: IC50 of [14C]-L-leucine uptake (LAT1 binding) in MCF-7 cells; cited from earlier work.
Details of series [4]: method as in PMID 26705152. Conditions: cited from earlier work.
In series [5] the test system is mouse primary astrocytes. Nature of the series: Intracellular unbound concentrations in astrocytes (RED dialysis, Kp,uu,cell). In kind it is in vitro ADME. Conditions: below 500 nM concentrations. On the procedure: The non-specific binding of compounds (100 μM) was determined in astrocyte homogenate by using the Rapid Equilibrium Dialysis (RED) device (Thermo Fisher Scientific, Inc., Waltham, MA, USA). Briefly, the astrocyte cell suspension (10 × 10^6 cells/mL) was homogenized with HBSS by the SoniPerp 150 Plus disintegrator (MSE Ltd., London, UK) (2 s × 3). The studied compound was mixed with 100 μL of cell homogenate and added to the reaction chamber. A 350-μL HBSS buffer was added to the buffer chamber. The dialysis plate was incubated at 37 °C for 4 h with shaking. Fifty microliters of samples were taken from the reaction and buffer chambers and equal size of the buffer or blank homogenate were added, respectively, to yield identical matrices. The proteins were precipitated by adding 100 μL of ice-cold ACN (including the selected internal standard; see above), and the supernatants were collected for LC-MS analysis (see above) after centrifugation at 12,000 × g for 10 min. The unbound drug fraction (fu,cell) was calculated by dividing concentration in the buffer chamber by concentration in the reaction chamber and taking into account the effect of homogenate dilution factor (D = 45 for 10 × 10^6 cells/mL cell suspension according to their weight of the cells) as described earlier.
The compound concentration ratios in astrocytes (Kp) was determined at 0.01–1.0 μM concentrations by comparing the cellular uptake amount (nmol) in cell lysates (0.1 M NaOH) per astrocyte cell volume (0.05810^−15 L/cell for 10 × 10^4 cells/well) to the concentrations (nM) detected from the surrounding buffer (HBSS) collected before cell lysing as described previously. The unbound drug concentration ratio (Kp,uu) was then calculated by multiplying the drug concentration ratio (Kp) by unbound drug fraction (fu,cell).

Broadly, the IC50 is the concentration that inhibits the measured activity by half. Take `N[C@H](Cc1cccc(C(=O)OCc2ccc(-c3ccc(-c4ccc5c(c4)COC5=O)s3)cc2)c1)C(=O)O` [PFI-PD]: the “Half-lives in brain cell homogenates” value in series [1] was 4 to 6 h. For the same compound, in series [2], the “Prodrug bioconverted in mouse brain S9 subcellular fraction” value is given as “approximately 50%”. In addition, the “Inhibition of cellular uptake into primary astrocytes by a specific LAT1 inhibitor” value with mouse primary astrocytes [3] was “over 70%”. In the series on LAT1, the IC50 was 1540 nM. In addition, in series [4], the “Stability in human plasma” value was “completely stable”.
For the compound `O=C1OCc2cc(-c3ccc(-c4ccc(CO)cc4)s3)ccc21` [PFI], the “Detection in astrocyte cell lysates” value with mouse primary astrocytes [5] is “not detected”.
